“And” between values parts separate entries of the source, which are not always exact repeats. Equal values may be shown once.
Target: ACSS2 (Homo sapiens, UniProt Q9NR19)
Assay: biochemical
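Note: Cell-free human ACSS2 enzyme reaction with acetate, CoA and ATP, 90 min at 37 C, coupled to pyrophosphatase, phosphate release detected by Biomol Green absorbance at 620 nm.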

Chain of ACSS2 (Q9NR19 whole entry): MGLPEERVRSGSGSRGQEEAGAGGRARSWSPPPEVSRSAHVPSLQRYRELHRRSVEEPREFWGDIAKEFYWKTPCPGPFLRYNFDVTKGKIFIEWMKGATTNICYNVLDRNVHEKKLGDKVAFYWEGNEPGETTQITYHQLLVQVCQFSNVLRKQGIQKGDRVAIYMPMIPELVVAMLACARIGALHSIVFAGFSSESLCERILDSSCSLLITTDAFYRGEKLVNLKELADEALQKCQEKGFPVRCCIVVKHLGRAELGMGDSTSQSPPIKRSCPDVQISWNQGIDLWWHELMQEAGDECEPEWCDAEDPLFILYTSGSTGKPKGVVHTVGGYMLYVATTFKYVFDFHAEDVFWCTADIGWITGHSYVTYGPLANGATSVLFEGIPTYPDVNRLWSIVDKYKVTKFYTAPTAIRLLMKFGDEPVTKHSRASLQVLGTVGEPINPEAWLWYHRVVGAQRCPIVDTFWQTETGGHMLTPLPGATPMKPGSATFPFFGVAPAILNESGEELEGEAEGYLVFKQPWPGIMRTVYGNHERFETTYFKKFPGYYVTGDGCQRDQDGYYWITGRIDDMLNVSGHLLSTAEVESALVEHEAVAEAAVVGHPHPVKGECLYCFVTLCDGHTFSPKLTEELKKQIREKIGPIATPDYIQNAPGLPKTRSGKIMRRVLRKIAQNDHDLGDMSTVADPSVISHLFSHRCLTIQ
Experimental: ACSS2 Cell-Free Activity Assay (Cell-Free IC50)
The assay is based on a coupling reaction with Pyrophosphatase: ACSS2 is converting ATP+CoA+Acetate=>AMP+pyrophosphate+Acetyl-CoA (Ac-CoA). Pyrophosphatase converts pyrophosphate, a product of the ACSS2 reaction, to phosphate which can be detected by measuring the absorbance at 620 nm after incubation with the Biomol green reagent (Enzo life Science, BML-AK111).
Cell-free IC50 Determination:
At the end of the reaction, Biomol Green was added for 30 minutes at RT and the activity was measured by reading the absorbance at 620 nm.

Structure (SMILES)	IC50
CC1=NN(c2ccc(OC(F)F)c(-c3nnc(C)[nH]3)c2)C(=O)C1C(=O)Nc1cccc(C(C)(F)F)c1 (centres unmarked) [compound 371]	0.01 to 6 nM
CC1=NN(c2cc(-c3ccccc3)cc(-c3ccsc3)c2)C(=O)C1C(=O)Nc1cccc(C(C)(F)F)c1 (centres unmarked) [compound 372]	0.01 to 6 nM
CC1=NN(c2cc(Cc3ccc(OCc4ccccc4)cc3)cc(-c3cccnc3)c2)C(=O)C1C(=O)Nc1cccc(C(C)(F)F)c1 (centres unmarked) [compound 373]	100 to 1000 nM
CC1=NN(c2ccc(Cc3ccccc3)c(-c3cccnc3)c2)C(=O)C1C(=O)Nc1cccc(C(C)(F)F)c1 (centres unmarked) [compound 374]	0.01 to 6 nM
CC1=NN(c2ccc(Cc3ccccc3)c(-c3ccccc3)c2)C(=O)C1C(=O)Nc1cccc(C(C)(F)F)c1 (centres unmarked) [compound 375]	0.01 to 6 nM
CC1=NN(c2cc(Cc3ccc(Cl)cc3)cc(-c3ccccc3)c2)C(=O)C1C(=O)Nc1cccc(C(C)(F)F)c1 (centres unmarked) [compound 376]	6 to 100 nM
CCC(F)(F)c1cccc(NC(=O)C2C(=O)N(c3ccc(OC(F)F)c(-c4ccccn4)c3)N=C2C)c1 (centres unmarked) [compound 377]	0.01 to 6 nM
CC1=NN(c2cccc(C#CCNC(=O)COCCOCCOCCOCCOCC(=O)Nc3cccc4c3C(=O)N(C3CCC(=O)NC3=O)C4=O)c2)C(=O)C1C(=O)Nc1cccc(C(C)(F)F)c1 (centres unmarked) [compound 378]	0.01 to 6 nM
CC1=NN(c2cccc(C#CCNC(=O)COCCOCCOCCOCC(=O)Nc3ccc4c(c3)C(=O)N(C3CCC(=O)NC3=O)C4=O)c2)C(=O)C1C(=O)Nc1cccc(C(C)(F)F)c1 (centres unmarked) [compound 379]	0.01 to 6 nM
CC1=NN(c2cccc(C#CCNC(=O)COCCOCCOCC(=O)Nc3cccc4c3C(=O)N(C3CCC(=O)NC3=O)C4=O)c2)C(=O)C1C(=O)Nc1cccc(C(C)(F)F)c1 (centres unmarked) [compound 380]	0.01 to 6 nM
CC1=NN(c2cccc(C#CCNC(=O)COCCOCC(=O)Nc3cccc4c3C(=O)N(C3CCC(=O)NC3=O)C4=O)c2)C(=O)C1C(=O)Nc1cccc(C(C)(F)F)c1 (centres unmarked) [compound 381]	0.01 to 6 nM
CC1=NN(c2cccc(C#CCNC(=O)CCCC(=O)Nc3ccc4c(c3)C(=O)N(C3CCC(=O)NC3=O)C4=O)c2)C(=O)C1C(=O)Nc1cccc(C(C)(F)F)c1 (centres unmarked) [compound 382]	0.01 to 6 nM
CCC(F)(F)c1cccc(NC(=O)C2C(=O)N(c3ccc(OC(F)F)cn3)N=C2C)c1 (centres unmarked) [compound 383]	0.01 to 6 nM
CC1=NN(c2cc(Cc3ccc(Cl)cc3)cc(-c3cccnc3)c2)C(=O)C1C(=O)Nc1cccc(C(C)(F)F)c1 (centres unmarked) [compound 384]	6 to 100 nM
COc1ccc(N2N=C(C)C(C(=O)Nc3cccc(C(C)(F)F)c3)C2=O)cc1-c1nnc(C)[nH]1 (centres unmarked) [compound 385]	6 to 100 nM
CC1=NN(c2cc(Cc3ccccc3)cc(-c3ccccc3)c2)C(=O)C1C(=O)Nc1cccc(C(C)(F)F)c1 (centres unmarked) [compound 387]	0.01 to 6 nM
CC1=NN(c2cc(Br)cc(Cc3ccc(Cl)cc3)c2)C(=O)C1C(=O)Nc1cccc(C(C)(F)F)c1 (centres unmarked) [compound 388]	0.01 to 6 nM
CC1=NN(c2cc(Br)cc(-c3ccccc3)c2)C(=O)C1C(=O)Nc1cccc(C(C)(F)F)c1 (centres unmarked) [compound 389]	0.01 to 6 nM
CC1=NN(c2cc(-c3ccccc3)cc(-c3cccnc3)c2)C(=O)C1C(=O)Nc1cccc(C(C)(F)F)c1 (centres unmarked) [compound 390]	0.01 to 6 nM
CC1=NN(c2ccc(OC(F)F)cc2)C(=O)C1C(=O)N(C)c1cc(Cl)c(F)c(Cl)c1 (centres unmarked) [compound 391]	100 to 1000 nM
COc1cc(Cl)cc(N(C)C(=O)C2C(=O)N(c3ccc(OC(F)F)cc3)N=C2C)c1 (centres unmarked) [compound 392]	100 to 1000 nM
CC1=NN(c2ccc(OC(F)F)cc2)C(=O)C1C(=O)N(C)c1cc(C)cc(Cl)c1 (centres unmarked) [compound 393]	100 to 1000 nM
CC1=NN(c2ccc(OC(F)F)cc2)C(=O)C1C(=O)N(C)c1cc(F)cc(Cl)c1 (centres unmarked) [compound 394]	100 to 1000 nM
CC1=NN(c2ccc(OC(F)F)cc2)C(=O)C1C(=O)N(C)c1cccc(Cl)c1 (centres unmarked) [compound 395]	100 to 1000 nM

Structure (SMILES)	IC50
COc1ccc(N2N=C(C)C(C(=O)Nc3cccc(C(C)(F)F)c3)C2=O)cc1-c1ccc(-c2ccccc2)cc1 (centres unmarked) [compound 396]	6 to 100 nM
CC1=NN(c2ccc(OC(F)F)cc2)C(=O)C1C(=O)Nc1cc(C(C)(F)F)cc2c1COC2 (centres unmarked) [compound 397]	100 to 1000 nM and 6 to 100 nM
CCCc1cc(-c2cccnc2)cc(N2N=C(C)C(C(=O)Nc3cccc(C(C)(F)F)c3)C2=O)c1 (centres unmarked) [compound 399]	0.01 to 6 nM
CCCc1cc(-c2ccccc2)cc(N2N=C(C)C(C(=O)Nc3cccc(C(C)(F)F)c3)C2=O)c1 (centres unmarked) [compound 400]	6 to 100 nM
CC1=NN(c2cc(-c3ccccc3)cc(-c3ccccc3)c2)C(=O)C1C(=O)Nc1cccc(C(C)(F)F)c1 (centres unmarked) [compound 401]	6 to 100 nM
COc1c(-c2ccccc2)cc(N2N=C(C)C(C(=O)Nc3cccc(C(C)(F)F)c3)C2=O)cc1-c1ccccc1 (centres unmarked) [compound 402]	6 to 100 nM
CC1=NN(c2ccc(OC(F)F)cc2)C(=O)C1C(=O)Nc1cc(C(C)(F)F)cc2ccoc12 (centres unmarked) [compound 403]	6 to 100 nM
CC1=NN(c2cccc(Br)c2)C(=O)C1C(=O)Nc1cccc(C(C)(F)F)c1 (centres unmarked) [compound 404]	0.01 to 6 nM
CC1=NN(c2ccc3[nH]cnc3c2)C(=O)C1C(=O)Nc1cccc(C(C)(F)F)c1 (centres unmarked) [compound 405]	6 to 100 nM
CC1=NN(c2cc(Cc3ccccc3Cl)cc(-c3cccnc3)c2)C(=O)C1C(=O)Nc1cccc(C(C)(F)F)c1 (centres unmarked) [compound 406]	0.01 to 6 nM
CC1=NN(c2ccc(OC(F)F)c(-c3noc(C)n3)c2)C(=O)C1C(=O)Nc1cccc(C(C)(F)F)c1 (centres unmarked) [compound 407]	0.01 to 6 nM
CC(=O)c1cc(NC(=O)C2C(=O)N(c3ccc(OC(F)F)cc3)N=C2C)c2[nH]ccc2c1 (centres unmarked) [compound 408]	100 to 1000 nM
CC1=NN(c2ccc(OC(F)F)cc2)C(=O)C1C(=O)Nc1cccc(C(C)(F)C(C)C)c1 (centres unmarked) [compound 409]	100 to 1000 nM
CC1=NN(c2ccc3cc[nH]c3c2)C(=O)C1C(=O)Nc1cccc(C(C)(F)F)c1 (centres unmarked) [compound 410]	0.01 to 6 nM
CC1=NN(c2cc(Br)cc(Cc3ccccc3Cl)c2)C(=O)C1C(=O)Nc1cccc(C(C)(F)F)c1 (centres unmarked) [compound 412]	0.01 to 6 nM
CC1=NN(c2ccc(OC(F)F)c(-c3ncc(C)o3)c2)C(=O)C1C(=O)Nc1cccc(C(C)(F)F)c1 (centres unmarked) [compound 415]	0.01 to 6 nM
CC(O)(c1ccccc1)c1cccc(NC(=O)C2C=NN(c3ccc(OC(F)F)cc3)C2=O)c1 (centres unmarked) [compound 416]	6 to 100 nM
COc1ccc(N2N=C(C)C(C(=O)Nc3cccc(C(C)(F)F)c3)C2=O)cc1-c1ccc[n+]([O-])c1 (centres unmarked) [compound 417]	100 to 1000 nM
CC1=NN(c2ccc(OC(F)F)cc2)C(=O)C1C(=O)Nc1cccc(C(C)(F)F)c1 (centres unmarked) [compound 418]	100 to 1000 nM
CC1=NN(c2ccc3[nH]ccc3c2)C(=O)C1C(=O)Nc1cccc(C(C)(F)F)c1 (centres unmarked) [compound 419]	0.01 to 6 nM
CC1=NN(c2cc(C)cc(-c3ncco3)c2)C(=O)C1C(=O)Nc1cccc(C(C)(F)F)c1 (centres unmarked) [compound 420]	0.01 to 6 nM
CC1=NN(c2ccc(B(O)O)cc2)C(=O)C1C(=O)Nc1cccc(C(C)(F)F)c1 (centres unmarked) [compound 421]	0.01 to 6 nM
CC1=NN(c2ccc(Br)cc2)C(=O)C1C(=O)Nc1cccc(C(C)(F)F)c1 (centres unmarked) [compound 422]	0.01 to 6 nM
CC1=NN(c2ccc(OC(F)F)c(-c3nnc(C)o3)c2)C(=O)C1C(=O)Nc1cccc(C(C)(F)F)c1 (centres unmarked) [compound 429]	0.01 to 6 nM

Structure (SMILES)	IC50
COc1ccc(N2N=C(C)C(C(=O)Nc3cccc(C(C)(F)F)c3)C2=O)cc1-c1nnc(C)o1 (centres unmarked) [compound 430]	0.01 to 6 nM
COc1ccc(N2N=C(C)C(C(=O)Nc3cccc(C(C)(F)F)c3)C2=O)cc1-c1ccncc1 (centres unmarked) [compound 431]	0.01 to 6 nM
COc1ccc(N2N=C(C)C(C(=O)Nc3cccc(C(C)(F)F)c3)C2=O)cc1-c1cnccn1 (centres unmarked) [compound 433]	0.01 to 6 nM
COc1ccc(N2N=C(C)C(C(=O)Nc3cccc(C(C)(F)F)c3)C2=O)cc1-c1ccccn1 (centres unmarked) [compound 434]	0.01 to 6 nM
CCC(F)(F)c1cccc(NC(=O)C2C(=O)N(c3ccc(OC)cc3)N=C2C)c1 (centres unmarked) [compound 435]	0.01 to 6 nM
CC1=NN(c2ccc(OC(F)F)c(-c3cnccn3)c2)C(=O)C1C(=O)Nc1cccc(C(C)(F)F)c1 (centres unmarked) [compound 437]	0.01 to 6 nM
CC1=NN(c2ccc(OC(F)F)c(-c3ccccn3)c2)C(=O)C1C(=O)Nc1cccc(C(C)(F)F)c1 (centres unmarked) [compound 438]	0.01 to 6 nM
CC1=NN(c2ccc(OC3COC3)cc2)C(=O)C1C(=O)Nc1cccc(C(C)(F)F)c1 (centres unmarked) [compound 439]	0.01 to 6 nM
CC1=NN(c2ccc(OC3CCC3)cc2)C(=O)C1C(=O)Nc1cccc(C(C)(F)F)c1 (centres unmarked) [compound 440]	0.01 to 6 nM
CC1=NN(c2ccc(OC(C)(C)C)cc2)C(=O)C1C(=O)Nc1cccc(C(C)(F)F)c1 (centres unmarked) [compound 441]	0.01 to 6 nM
COc1ccc(N2N=C(C)C(C(=O)Nc3cccc(C(C)(F)F)c3)C2=O)cc1-c1cncnc1 (centres unmarked) [compound 442]	0.01 to 6 nM
CC1=NN(c2ccc(OC3CCCCC3)cc2)C(=O)C1C(=O)Nc1cccc(C(C)(F)F)c1 (centres unmarked) [compound 443]	0.01 to 6 nM
CCC(C)Oc1ccc(N2N=C(C)C(C(=O)Nc3cccc(C(C)(F)F)c3)C2=O)cc1 (centres unmarked) [compound 444]	0.01 to 6 nM
COc1ccc(N2N=C(C)C(C(=O)Nc3cccc(C(C)(F)F)c3)C2=O)cc1-c1cccnc1 (centres unmarked) [compound 445]	0.01 to 6 nM
CC1=NN(c2ccc(OC3CCCC3)cc2)C(=O)C1C(=O)Nc1cccc(C(C)(F)F)c1 (centres unmarked) [compound 446]	0.01 to 6 nM
CC1=NN(c2ccc(OC(C)C)cc2)C(=O)C1C(=O)Nc1cccc(C(C)(F)F)c1 (centres unmarked) [compound 447]	0.01 to 6 nM
CCCOc1ccc(N2N=C(C)C(C(=O)Nc3cccc(C(C)(F)F)c3)C2=O)cc1 (centres unmarked) [compound 448]	0.01 to 6 nM
CC1=NN(c2ccc(OC(F)F)c(-c3cncnc3)c2)C(=O)C1C(=O)Nc1cccc(C(C)(F)F)c1 (centres unmarked) [compound 449]	0.01 to 6 nM
CC1=NN(c2ccc(OC(F)F)c(-c3ccncc3)c2)C(=O)C1C(=O)Nc1cccc(C(C)(F)F)c1 (centres unmarked) [compound 450]	0.01 to 6 nM
COc1ccc(N2N=C(C)C(C(=O)Nc3cccc(C(C)(F)F)c3)C2=O)c(F)c1 (centres unmarked) [compound 451]	0.01 to 6 nM
COc1ccc(N2N=C(C)C(C(=O)Nc3cccc(C(C)(F)F)c3)C2=O)cc1-c1ccccc1 (centres unmarked) [compound 452]	0.01 to 6 nM
CC1=NN(c2ccc(OC(F)F)c(-c3ccccc3)c2)C(=O)C1C(=O)Nc1cccc(C(C)(F)F)c1 (centres unmarked) [compound 453]	0.01 to 6 nM
COc1cc(N2N=C(C)C(C(=O)Nc3cccc(C(C)(F)F)c3)C2=O)ccc1OC(F)F (centres unmarked) [compound 454]	0.01 to 6 nM
